Three compounds from the NIST ThermoML archive (doi:10.1016/j.fluid.2016.01.023) can be followed below.

The series in a line: mn = molality of the nth substance listed, in mol/kg. The settings on record: 303.15 K, 101 kPa, Liquid, Vibrating tube method.

The mass density is the mass of a sample divided by its volume.

± gives the expanded uncertainty stated by the source.

For `CC(=O)C(=O)[O-].[Na+]` [sodium pyruvate] + O, the mass density reads like this: (m1 = 0.01) 995.66 ± 0.84 kg/m3; (m1 = 0.053) 997.57 ± 0.84 kg/m3; (m1 = 0.101) 1000.51 ± 0.84 kg/m3; (m1 = 0.5) 1018.19 ± 0.84 kg/m3; (m1 = 1.002) 1041.67 ± 0.84 kg/m3; (m1 = 1.502) 1065.87 ± 0.84 kg/m3.
On to `N[C@@H](CCC(=O)[O-])C(=O)O.[Na+]` [sodium (S)-2-amino-4-carboxybutanoate] + O, for which the mass density (m1 = 0.01) is 996.19 ± 0.84 kg/m3; the mass density (m1 = 0.043) was determined as 999.15 ± 0.84 kg/m3; the mass density (m1 = 0.1) is listed as 1004.02 ± 0.84 kg/m3; the mass density (m1 = 0.417) is on record as 1030.44 ± 0.84 kg/m3; the mass density (m1 = 0.896) is 1066.63 ± 0.85 kg/m3; the mass density (m1 = 1.454) was found to be 1104.02 ± 0.85 kg/m3.
With `O=C([O-])CCC(=O)C(=O)[O-].[Na+].[Na+]` [disodium 2-oxo-glutarate] + O, the mass density reads like this: (m1 = 0.01) 996.13 ± 0.84 kg/m3; (m1 = 0.101) 1007.45 ± 0.85 kg/m3; (m1 = 0.5) 1042.49 ± 0.85 kg/m3; (m1 = 1.001) 1093.14 ± 0.85 kg/m3; (m1 = 1.501) 1147.45 ± 0.86 kg/m3.
